This is an account of results in patent US20240132450A1, “MODULATORS OF G PROTEIN-COUPLED RECEPTOR 88” (ACADIA Pharmaceuticals Inc., priority 2020, published 2024).

For one series, the target named is hGPR88 receptor (Homo sapiens, UniProt Q9GZN0). Kind of series: hGPR88-HEK cAMP accumulation assay. The settings on record: HEK-293 cells expressing human recombinant GPR88, forskolin 200 nM, High/Medium/Low bands.
A short description of series [1]: Hepatocyte stability (mouse). The format is in vitro ADME. Conditions: test compound 3 μM, 60 min; for hepatocyte CLint at 3 μM: mouse, cryopreserved pooled hepatocytes in suspension, read-out: Mouse heps Clint. How it is done: (iii) Hepatocyte Stability (Human, Mouse, Rat or Dog)
Test compound (3 μM) is incubated with cryopreserved hepatocytes in suspension. Samples are removed at 6 time points over the course of a 60 min experiment and test compound is analysed by LC-MS/MS. An intrinsic clearance value (CLint) with standard error and half-life (t %) are calculated. Cryopreserved pooled hepatocytes are stored in liquid nitrogen prior to use. […] The final incubation volume is 500 μL. A control incubation is included for each compound tested where lysed cells are added instead of viable cells. Two control compounds are included with each species.
The reactions are stopped by transferring 50 μL of incubate to 100 μL methanol containing internal standard at the appropriate time points. The control (lysed cells) is incubated for 60 min only. The termination plates are centrifuged at 2500 rpm at 4° C. for 30 min to precipitate the protein. Following protein precipitation, the sample supernatants are combined in cassettes of up to 4 compounds and analysed using generic LC-MS/MS conditions. From a plot of In peak area ratio (compound peak area/internal standard peak area) against time, the gradient of the line is determined. Subsequently, half-life (t %) and intrinsic clearance (CLint) are calculated using the equations below: […]

Series [2] deals with T1, dopamine uptake transporter (rat DAT) (Rattus norvegicus, UniProt P23977).
T1 construct: is determined in rat striatum synaptosomes following [^3H]dopamine scintillation counting; from tissue; host or cells: rat striatum synaptosomes
Kind of series: Dopamine transporter uptake assay. In kind it is biochemical. The settings on record: rat striatum synaptosomes, [3H]dopamine.

Each structure is given as a SMILES string. Like-named read-outs stand apart in the source and are kept apart here. A value given as a limit tells only on which side of the number the result lay.

Chain of hGPR88 receptor (Q9GZN0 whole entry): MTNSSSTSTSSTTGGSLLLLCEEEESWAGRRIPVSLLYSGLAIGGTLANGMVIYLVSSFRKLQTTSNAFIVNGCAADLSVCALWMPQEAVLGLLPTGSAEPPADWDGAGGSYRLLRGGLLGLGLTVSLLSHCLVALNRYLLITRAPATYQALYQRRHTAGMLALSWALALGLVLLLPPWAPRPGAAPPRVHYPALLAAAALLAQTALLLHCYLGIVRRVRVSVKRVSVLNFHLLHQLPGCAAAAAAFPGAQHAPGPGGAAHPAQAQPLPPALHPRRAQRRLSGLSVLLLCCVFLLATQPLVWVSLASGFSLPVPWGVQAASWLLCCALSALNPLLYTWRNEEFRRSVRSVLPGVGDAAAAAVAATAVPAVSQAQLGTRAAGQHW
T1 sequence (P23977 whole entry): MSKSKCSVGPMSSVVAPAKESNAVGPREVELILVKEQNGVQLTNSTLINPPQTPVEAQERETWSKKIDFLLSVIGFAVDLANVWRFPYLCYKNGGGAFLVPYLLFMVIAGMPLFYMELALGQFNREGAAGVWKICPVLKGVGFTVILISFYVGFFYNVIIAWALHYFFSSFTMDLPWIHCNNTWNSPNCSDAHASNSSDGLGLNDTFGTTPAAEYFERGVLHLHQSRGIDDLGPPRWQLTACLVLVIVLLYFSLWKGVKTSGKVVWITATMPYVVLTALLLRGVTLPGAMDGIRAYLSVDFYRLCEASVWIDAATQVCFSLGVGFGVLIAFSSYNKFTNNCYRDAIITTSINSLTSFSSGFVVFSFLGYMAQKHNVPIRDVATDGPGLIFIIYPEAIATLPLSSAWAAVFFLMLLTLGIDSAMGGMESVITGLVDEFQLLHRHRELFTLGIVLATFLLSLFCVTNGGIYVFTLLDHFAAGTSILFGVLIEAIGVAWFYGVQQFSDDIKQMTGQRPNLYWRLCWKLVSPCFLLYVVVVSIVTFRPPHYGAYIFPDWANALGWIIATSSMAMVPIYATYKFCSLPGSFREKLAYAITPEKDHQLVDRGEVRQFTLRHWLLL
Procedure for hGPR88 receptor: Biological Assay 1: hGPR88-HEK cAMP Accumulation Assay
Cryopreserved vials of HEK-293 cells expressing human recombinant GPR88 receptor are re-suspended in KRH assay buffer and 5 μl of cell solution is suspended in test wells at a seeding density of 2500±500 cells per well using the multidrop to provide a final reaction volume of 10 μl containing 0.5% DMSO. Assay plate is incubated for 30 min at room temperature and the reaction is terminated by addition of 5 μl of each of the cAMP detection reagents of the cAMP Gi kit (Cisbio Bioassays, 62AM9PEJ), diluted in cell lysis buffer, to each well using the multidrop in the following order: first the cAMP-d2 conjugate, then the anti-cAMP cryptate conjugate. […] Raw counts were converted to cAMP concentrations via a standard curve before EC50 and Emax determination. Data is expressed as % decrease in forskolin stimulated cAMP compared to cells treated with vehicle alone in the same buffer and on the same plate.

As to `COCc1ccc(-c2ccc3c(c2)CCCN3C(=O)C(C)(C)Oc2ccc(F)cc2)cc1` [Example 31, 2-(4-fluorophenoxy)-1-(6-(4-(methoxymethyl)phenyl)-3,4-dihydroquinolin-1(2H)-yl)-2-methylpropan-1-one], the concentration giving a half-maximal response (EC50) – broadly, the concentration at which the effect is half-maximal – at hGPR88 receptor (GRP88 agonist activity (EC50)) was less than 1000 nM. Further, the hepatocyte CLint at 3 μM in series [1] was determined as 76 µL/min/1e6 cells. Besides, the “Inhibition of dopamine uptake transporter (% inhibition at 10 μM compound)” value (“Inhibition … (% inhibition at 10 μM compound)” below) in series [2] stood at 52 % inhibition.
`CCOc1ccc(-c2ccc(NC(=O)C(C)(C)Oc3ccc(F)cc3)cc2)cn1` [Example 26, N-(4-(6-ethoxypyridin-3-yl)phenyl)-2-(4-fluorophenoxy)-2-methylpropanamide]: the EC50 at hGPR88 receptor (GRP88 agonist activity (EC50)) is less than 1000 nM. Also, in series [1], the hepatocyte CLint at 3 μM stood at 70 µL/min/1e6 cells. In addition, the “Inhibition … (% inhibition at 10 μM compound)” value in series [2] worked out at 7 % inhibition.
As for `CCOc1ccc(-c2ccc(NC(=O)C3CC3c3ccccn3)cc2)cn1` (racemic) [Example 76, (rac-trans)-N-(4-(6-ethoxypyridin-3-yl)phenyl)-2-(pyridin-2-yl)cyclopropane-1-carboxamide], the concentration giving a half-maximal response (EC50) on hGPR88 receptor (read-out: GRP88 agonist activity (EC50)) was 1000 to 5000 nM. Further, the “Mouse heps Clint” value in series [1] (mouse cryopreserved hepatocytes) is reported as 30 μL/min/10^6 cells. Besides, the “Inhibition … (% inhibition at 10 μM compound)” value in series [2] (10 µM) amounted to 7 % inhibition.
For `O=C(Nc1ccc(-c2ccc(OC3CC3)cc2)cc1)C1CC1c1ccccn1` (racemic) [Example 87, (rac-trans)-N-(4′-cyclopropoxy-[1,1′-biphenyl]-4-yl)-2-(pyridin-2-yl)cyclopropane-1-carboxamide], at hGPR88 receptor (GRP88 agonist activity (EC50)), the concentration giving a half-maximal response (EC50) was less than 1000 nM. In addition, in series [1], the hepatocyte CLint at 3 μM turned out to be 31 µL/min/1e6 cells. Moreover, in series [2], the “Inhibition … (% inhibition at 10 μM compound)” value was 1 % inhibition.
Consider `COCc1ccc(-c2ccc(NC(=O)C(C)(C)Oc3ccc(F)cc3)cc2)cc1` [Example 2, 2-(4-fluorophenoxy)-N-(4′-(methoxymethyl)-[1,1′-biphenyl]-4-yl)-2-methylpropanamide], for which the EC50 on hGPR88 receptor (GRP88 agonist activity (EC50)) is less than 1000 nM. Further, the hepatocyte CLint at 3 μM in series [1] was 54 µL/min/1e6 cells. Moreover, in series [2], the “Inhibition … (% inhibition at 10 μM compound)” value is listed as 3 % inhibition.
The matching figures for `COCc1ccc(C23CC(NC(=O)C4CC4c4ccccn4)(C2)C3)cc1` (racemic) [Example 111, (rac-trans)-N-(3-(4-(methoxymethyl)phenyl)bicyclo[1.1.1]pentan-1-yl)-2-(pyridin-2-yl)cyclopropane-1-carboxamide]: 1000 to 5000 nM, 22 µL/min/1e6 cells and 14 % inhibition.
`CS(=O)(=O)c1ccc(-c2ccc(NC(=O)C3CC3c3ccccn3)cc2)cc1` (racemic) [Example 85, (rac-trans)-N-(4′-(methylsulfonyl)-[1,1′-biphenyl]-4-yl)-2-(pyridin-2-yl)cyclopropane-1-carboxamide]: the EC50 at hGPR88 receptor (GRP88 agonist activity (EC50)) is less than 1000 nM. Also, the hepatocyte CLint at 3 μM in series [1] was found to be 14 µL/min/1e6 cells. In series [2], the “Inhibition … (% inhibition at 10 μM compound)” value came to 12 % inhibition.
As for `COCc1ccc(-c2ccc(NC(=O)C3CC3c3ccccn3)cc2)cc1` (racemic) [Example 1, (rac-trans)-N-(4′-(methoxymethyl)-[1,1′-biphenyl]-4-yl)-2-(pyridin-2-yl)cyclo propane-1-carboxamide], on hGPR88 receptor (GRP88 agonist activity (EC50)), the 50% effective concentration (EC50) was less than 1000 nM. Also, in series [1], the hepatocyte CLint at 3 μM amounted to 65 µL/min/1e6 cells. Moreover, in series [2] (10 µM), the “Inhibition … (% inhibition at 10 μM compound)” value amounted to 11 % inhibition.
